# Assay results as given in the supplement of paper PMC3974653.
# Counter-ions that a name gives are not always drawn.
# System: MTT (mouse pheochromocytoma)
# Test: IC50 of cell viability (ATP content)
# Conditions: (24 or 48 h)
# Method in brief: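 CellTiter-Glo ATP luminescence, read after 15 minutes, was used to assess MTT mouse pheochromocytoma cells treated for 24 or 48 hrs with library compounds (final 0.5 nM to 46 µM, 8 concentrations). The cells had been plated at 5 µl of 200,000 cells/ml per well in white 1536-well plates in DMEM with 5% FBS and 1% horse serum and cultured overnight at 37°C, 5% CO2. Normalisation set positive-control wells to 100% and DMSO wells to 0%. The IC50 was then determined by four-parameter logistic fitting.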
row,IC50 of cell viability,SMILES
1,> 46 µM,CCCCCCCC/C=C\CCCCCCCC(=O)O [Oleic acid]
2,> 46 µM,CCCCCCCC/C=C\CCCCCCCC(=O)NCc1ccc(O)c(OC)c1 [Olvanil]
3,> 46 µM,COc1ccc2[nH]c([S+]([O-])Cc3ncc(C)c(OC)c3C)nc2c1 (stereo not given) [Omeprazole]
4,> 46 µM,COc1ccc(/C=N/NC(=O)c2ccncc2)c(C(=O)O)c1OC [Opiniazida]
5,> 46 µM,OCCN1CCN(CCCN2C3=C(C=CC=C3)\C=C/C4=C2C=CC=C4)CC1 [Opipramol HCl]
6,> 46 µM,C[C@@H]1CN(c2c(F)c(F)c3c(=O)c(C(=O)O)cn(C4CC4)c3c2F)C[C@H](C)N1 [Orbifloxacin]
7,> 46 µM,O=C(O)c1cc(O)nc(O)n1 [Orotic acid]
8,> 46 µM,Cc1ccccc1C(OCCN(C)C)c1ccccc1 (stereo not given) [Orphenadrine citrate salt]
9,> 46 µM,Cc1onc(-c2ccccc2)c1C(=O)N[C@@H]1C(=O)N2C1SC(C)(C)[C@@H]2C(=O)[O-] (stereo not given in full) [Oxacillin sodium salt]
10,> 46 µM,CC(C)NC[C@H]1CCc2cc(CO)c([N+](=O)[O-])cc2N1 [Oxamniquine]
11,> 46 µM,COC(=O)Nc1nc2ccc([S+]([O-])c3ccccc3)cc2[nH]1 (stereo not given) [Oxfendazole]
12,> 46 µM,O=C(O)/C=C\c1ccc(Cn2ccnc2)cc1 [Ozagrel hydrochloride]
13,> 46 µM,CCC(=O)c1ccc(O)cc1 [P-HYDROXYPROPIOPHENONE]
14,> 46 µM,O=C1c2cccc3c2[C@@H](CCC3)CN1[C@@H]1CN2CCC1CC2 [PALONOSETRON HYDROCHLORIDE]
15,> 46 µM,Cn1c(=O)c2[nH]c(Br)nc2n(C)c1=O [PAMABROM]
16,> 46 µM,c1ccc2c(c1)Sc1ccccc1N2CCN1CCCC1 [PARATHIAZINUM]
17,> 46 µM,NC[C@@H]1O[C@H](OC2[C@@H](CO)O[C@@H](OC3[C@H](O)[C@H](N)C[C@H](N)[C@H]3OC3O[C@H](CO)[C@@H](O)[C@H](O)[C@@H]3N)[C@H]2O)C(N)[C@H](O)[C@@H]1O (stereo not given in full) [PAROMOMYCIN SULFATE]
18,> 46 µM,C[C@H]1COc2c(C3(N)CC3)c(F)cc3c(=O)c(C(=O)O)cn1c23 [PAZUFLOXACIN]
19,> 46 µM,CC(C(=O)O)c1ccc(/C=C2\CCCCC2=O)cc1 (stereo not given) [PELUBIPROFEN]
20,> 46 µM,Cc1cccn2c(=O)c(-c3nnn[n-]3)cnc12 [PEMIROLAST POTASSIUM]
21,> 46 µM,CCCCCC1Nc2cc(C(F)(F)F)c([S+](N)(=O)[O-])cc2[S+](=O)([O-])N1 (stereo not given) [PENFLUTIZIDE]
22,> 46 µM,CNC1C(O)C(OC2C(N)CC(N)C(OC3OC(CN)=CCC3N)C2O)OCC1(C)O (stereo not given) [PENTISOMICINUM]
23,> 46 µM,CC(C)CC(=O)N[C@H](C(=O)N[C@H](C(=O)N[C@@H](CC(C)C)[C@@H](O)CC(=O)N[C@@H](C)C(=O)N[C@@H](CC(C)C)[C@@H](O)CC(=O)O)C(C)C)C(C)C [PEPSTATINUM]
24,> 46 µM,FC(F)(F)C(F)(F)C(F)(F)C(F)(F)C(F)(F)C(F)(F)F [PERFLEXANE]

# Continued, compound first:
row,SMILES,IC50 of cell viability
1,Cc1nccn1C[C@@H]1CCc2c(c3ccccc3n2C)C1=O [Ondansetron Hydrochloride],> 46 µM
2,Cc1nccn1CC1CCc2c(c3ccccc3n2C)C1=O (stereo not given) [Ondansetron],> 46 µM
3,Cc1ncc([N+](=O)[O-])n1C[C@H](O)CCl [Ornidazole],> 46 µM
4,CCCN(CCC)c1c([N+](=O)[O-])cc([S+](N)(=O)[O-])cc1[N+](=O)[O-] [Oryzalin],> 46 µM
5,O=C(Nc1ccc(O)cc1)c1ccccc1O [Osalmid],> 46 µM
6,CCN(CC)CCc1nc(-c2ccccc2)no1.O=C(O)CC(O)(CC(=O)O)C(=O)O [Oxalamine citrate salt],> 46 µM
7,O=c1[nH]c2ccccc2n1CCCN1CCN(C(c2ccccc2)c2ccccc2)CC1 [Oxatomide],> 46 µM
8,O=C1Nc2ccc(Cl)cc2C(c2ccccc2)=NC1O (stereo not given) [Oxazepam],> 46 µM
9,CC[C@H]1C[C@H]2[C@@H]3CCC/4=C/C(=O)CC[C@@H]4[C@H]3CC[C@]2(C)[C@H]1O [Oxendolone],> 46 µM
10,CN(C(=O)CN(CCO)CC(=O)N(C)C(C)(C)Cc1ccccc1)C(C)(C)Cc1ccccc1 [Oxethazaine],> 46 µM
11,NC(=O)CN1CC(O)CC1=O (stereo not given) [Oxiracetam],> 46 µM
12,C=CCOc1ccccc1OC[C@H](O)CNC(C)C [Oxprenolol hydrochloride],> 46 µM
13,COc1ccc(C(=O)c2ccccc2)c(O)c1 [Oxybenzone],> 46 µM
14,CCN(CC)CC#CCOC(=O)[C@@](O)(c1ccccc1)C1CCCCC1 [Oxybutynin chloride],> 46 µM
15,C[C@]12C/C(=C/O)C(=O)C[C@@H]1CC[C@@H]1[C@@H]2CC[C@@]2(C)[C@H]1CC[C@]2(C)O [Oxymetholone],> 46 µM
16,COc1cccc(C(=O)CCN[C@@H](C)[C@H](O)c2ccccc2)c1 [Oxyphedrine],> 46 µM
17,CCCC[C@H]1C(=O)N(c2ccccc2)N(c2ccc(O)cc2)C1=O [Oxyphenbutazone],> 46 µM
18,CC(=O)Oc1ccc(C2(c3ccc(OC(C)=O)cc3)C(=O)Nc3ccccc32)cc1 [Oxyphenisatin Acetate],> 46 µM
19,CN(C)[C@H]\1[C@@H]2[C@@H](O)[C@H]3\C(=C(O)/[C@]2(O)C(=O)\C(=C1O)C(N)=O)C(=O)C4=C(C=CC=C4O)[C@@]3(C)O [Oxytetracycline HCl],> 46 µM
20,CNC(C)C(O)c1ccc(O)cc1 (stereo not given) [P-HYDROXYEPHEDRINE HYDROCHLORIDE],> 46 µM
21,CNC(C)[C@@H](O)c1ccc(O)cc1 (stereo not given in full) [P-HYDROXYEPHEDRINE HYDROCHLORIDE],> 46 µM

row,SMILES,IC50 of cell viability
1,Nc1ccc(N)cc1 [P-PHENYLENEDIAMINE],> 46 µM
2,CCOC(=O)Cn1cccc1-c1nc(-c2ccc(OC)cc2)c(-c2ccc(OC)cc2)s1 [PAMICOGREL],> 46 µM
3,CC(=O)OC1C([N+]2(C)CCCCC2)C[C@H]2C3CC[C@H]4C[C@H](OC(C)=O)C([N+]5(C)CCCCC5)CC4(C)[C@@H]3CCC12C (stereo not given in full) [PANCURONIUM],> 46 µM
4,CC(C)(CO)[C@@H](O)C(=O)NCCC(=O)NCCSSCCNC(=O)CCNC(=O)[C@H](O)C(C)(C)CO [PANTETHINE],> 46 µM
5,COc1ccnc(C[S+]([O-])c2nc3cc(OC(F)F)ccc3[nH]2)c1OC (stereo not given) [PANTOPRAZOLE],> 46 µM
6,Clc1ccc(Cl)cc1 [PARADICHLOROBENZENE],> 46 µM
7,CC1OC(C)OC(C)O1 (stereo not given) [PARALDEHYDE],> 46 µM
8,CCOc1ccc(C(=O)OCCN(CC)CC)cc1 [PARETHOXYCAINE HYDROCHLORIDE],> 46 µM
9,C#CCOC(C(=O)OCCN(C)C)(c1ccccc1)c1ccccc1 [PARGEVERINUM],> 46 µM
10,Nc1nc(O)c2c(CCc3ccc(C(=O)N[C@H](CCC(=O)[O-])C(=O)[O-])cc3)c[nH]c2n1 [PEMETREXED],> 46 µM
11,Nc1nc(O)c(-c2ccccc2)o1 [PEMOLINE],> 46 µM
12,CN1C(C)(C)CCCC1(C)C.O=C(O)C(O)C(O)C(=O)O [PEMPIDINE TARTRATE],> 46 µM
13,Nc1nc(O)c2ncn(CCC(CO)CO)c2n1 [PENCICLOVIR SODIUM],> 46 µM
14,CC(C)(S)[C@@H](N)C(=O)O [PENICILLAMINE],> 46 µM
15,CCCCCC(O)C1C(=O)OC(C)C(O)C=CC=CC=CC=CC=C(C)C(O)C(O)C(O)CC(O)CC(O)CC(O)CC(O)CC1O (stereo not given) [PENTAMYCIN],> 46 µM
16,OCCOC[C@H]1O[C@H](OCCO)[C@H](OCCO)[C@@H](OCCO)[C@@H]1OCCO.OC[C@H]1O[C@H](O)[C@H](O)[C@@H](O)[C@@H]1O [PENTASTARCH],> 46 µM
17,CCCC(C)C1(CC)C(=O)N\C(=N/C1=O)O (stereo not given) [PENTOBARBITAL],> 46 µM
18,C1CCc2nnnn2CC1 [PENTYLENETETRAZOLE],> 46 µM
19,Cc1c(N)nc([C@@H](CC(N)=O)NC[C@H](N)C(N)=O)nc1C(=O)N[C@H](C(=O)N[C@@H](C)[C@@H](O)[C@@H](C)C(=O)N[C@H](C(=O)NCCc1nc(-c2nc(C(=O)NCCCN[C@H](C)c3ccccc3)cs2)cs1)[C@H](C)O)[C@@H](O[C@H]1O[C@@H](CO)[C@H](O)[C@@H](O)[C@H]1O[C@H]1O[C@@H](CO)[C@@H](O)[C@H](OC(N)=O)[C@H]1O)c1cnc[nH]1 [PEPLOMYCIN SULFATE],> 46 µM
20,CC(=O)OO [PERACETIC ACID],> 46 µM
